The compounds below were run against CK2A1 (CK2α/β) (Homo sapiens, UniProt P68400) (assay: CK2 kinase assay, CK2A1 (CK2α/β)). Details: Table A; read-out: CK2A1 (CK2α/β) (IC50).
Format: biochemical

Sequence of CK2A1 (CK2α/β) (P68400 whole entry, species assumed): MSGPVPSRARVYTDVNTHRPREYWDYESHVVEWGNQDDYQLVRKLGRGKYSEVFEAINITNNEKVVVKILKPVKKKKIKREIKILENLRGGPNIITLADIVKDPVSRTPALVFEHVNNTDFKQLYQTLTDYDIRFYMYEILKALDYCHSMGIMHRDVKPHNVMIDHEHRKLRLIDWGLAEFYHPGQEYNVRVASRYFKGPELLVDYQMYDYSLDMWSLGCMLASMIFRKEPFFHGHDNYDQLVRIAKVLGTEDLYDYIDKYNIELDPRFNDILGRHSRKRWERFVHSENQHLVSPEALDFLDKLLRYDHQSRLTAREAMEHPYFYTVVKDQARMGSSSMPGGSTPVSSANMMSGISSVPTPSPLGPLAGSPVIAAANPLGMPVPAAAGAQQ
Sequence of CK2A1 (CK2α/β) (P67870 whole entry partner, species assumed): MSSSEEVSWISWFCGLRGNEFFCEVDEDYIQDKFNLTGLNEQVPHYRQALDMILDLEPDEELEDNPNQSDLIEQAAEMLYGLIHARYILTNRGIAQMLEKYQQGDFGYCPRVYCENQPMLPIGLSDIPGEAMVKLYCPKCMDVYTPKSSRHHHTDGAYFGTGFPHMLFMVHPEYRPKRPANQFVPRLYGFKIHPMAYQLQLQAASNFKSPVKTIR

Row | IC50 [nM] | Compound
1 | 1.15 | N#Cc1cnc2c(NC3CC3)nc(Nc3cc(OC(F)F)cc(N4CCN(C5CNC5)CC4)c3Cl)nn12 [Example 560, 2-((3-(4-(azetidin-3-yl)piperazin-1-yl)-2-chloro-5-(difluoromethoxy)phenyl)amino)-4-(cyclopropylamino)imidazo[2,1-f][1,2,4]triazine-7-carbonitrile]
2 | 2.08 | CC1(N2CCN(c3cc(OC(F)F)cc(Nc4nc(NC5CC5)c5ncc(C#N)n5n4)c3Cl)CC2)COC1 [Example 561, 2-((2-chloro-5-(difluoromethoxy)-3-(4-(3-methyloxetan-3-yl)piperazin-1-yl)phenyl)amino)-4-(cyclopropylamino)imidazo[2,1-f][1,2,4]triazine-7-carbonitrile]
3 | 3.33 | COC(=O)N1CC(N2CCN(c3cc(OC(F)F)cc(Nc4nc(NC5CC5)c5ncc(C#N)n5n4)c3Cl)CC2)C1 [Example 562, methyl 3-(4-(2-chloro-3-((7-cyano-4-(cyclopropylamino)imidazo[2,1-f][1,2,4]triazin-2-yl)amino)-5-(difluoromethoxy)phenyl)piperazin-1-yl)azetidine-1-carboxylate]
4 | 0.79 | CN(C)C(=O)C1CN(c2cc(C#N)cc(Nc3nc(NC4CC4)c4ncc(C#N)n4n3)c2Cl)CCN1 (stereo not shown) [Example 563, 4-(2-chloro-5-cyano-3-((7-cyano-4-(cyclopropylamino)imidazo[2,1-f][1,2,4]triazin-2-yl)amino)phenyl)-N,N-dimethylpiperazine-2-carboxamide]
5 | 4.86 | CN(C)C(=O)C1CN(c2cc(C#N)cc(Nc3nc(NC4CC4)c4ncc(C#N)n4n3)c2Cl)CCN1C1COC1 (stereo not shown) [Example 564, 4-(2-chloro-5-cyano-3-((7-cyano-4-(cyclopropylamino)imidazo[2,1-f][1,2,4]triazin-2-yl)amino)phenyl)-N,N-dimethyl-1-(oxetan-3-yl)piperazine-2-carboxamide]
6 | 180 | CN(C)C(=O)C1CN(c2cc(C#N)cc(Nc3nc(NC4CC4)c4ncc(C#N)n4n3)c2Cl)CCN1CC(F)F (stereo not shown) [Example 565, 4-(2-chloro-5-cyano-3-((7-cyano-4-(cyclopropylamino)imidazo[2,1-f][1,2,4]triazin-2-yl)amino)phenyl)-1-(2,2-difluoroethyl)-N,N-dimethylpiperazine-2-carboxamide]
7 | 0.1 | N#Cc1cc(Nc2nc(NC3CC3)c3ncc(C#N)n3n2)c(Cl)cc1CCCO [Example 566, 2-((2-chloro-5-cyano-4-(3-hydroxypropyl)phenyl)amino)-4-(cyclopropylamino)imidazo[2,1-f][1,2,4]triazine-7-carbonitrile]
8 | 4.06 | N#Cc1cc(Nc2nc(NC3CC3)c3ncc(C#N)n3n2)c(Cl)cc1CCCN1CCOCC1 [Example 567, 2-((2-chloro-5-cyano-4-(3-morpholinopropyl)phenyl)amino)-4-(cyclopropylamino)imidazo[2,1-f][1,2,4]triazine-7-carbonitrile]
9 | 1.97 | CC(C)(O)C1CCN(CCCc2cc(Cl)c(Nc3nc(NC4CC4)c4ncc(C#N)n4n3)cc2C#N)CC1 [Example 568, 2-((2-chloro-5-cyano-4-(3-(4-(2-hydroxypropan-2-yl)piperidin-1-yl)propyl)phenyl)amino)-4-(cyclopropylamino)imidazo[2,1-f][1,2,4]triazine-7-carbonitrile]
10 | 0.7 | N#Cc1cc(Nc2nc(NC3CC3)c3ncc(C#N)n3n2)c(Cl)cc1CCCN1CC(O)C1 [Example 569, 2-((2-chloro-5-cyano-4-(3-(3-hydroxyazetidin-1-yl)propyl)phenyl)amino)-4-(cyclopropylamino)imidazo[2,1-f][1,2,4]triazine-7-carbonitrile]
11 | 1.91 | COC1CN(CCCc2cc(Cl)c(Nc3nc(NC4CC4)c4ncc(C#N)n4n3)cc2C#N)C1 [Example 570, 2-((2-chloro-5-cyano-4-(3-(3-methoxyazetidin-1-yl)propyl)phenyl)amino)-4-(cyclopropylamino)imidazo[2,1-f][1,2,4]triazine-7-carbonitrile]
12 | 3.95 | COC1CN(CCCCc2cc(Cl)c(Nc3nc(NC4CC4)c4ncc(C#N)n4n3)cc2C#N)C1 [Example 571, 2-((2-chloro-5-cyano-4-(4-(3-methoxyazetidin-1-yl)butyl)phenyl)amino)-4-(cyclopropylamino)imidazo[2,1-f][1,2,4]triazine-7-carbonitrile]
13 | 0.66 | N#Cc1cc(Nc2nc(NC3CC3)c3ncc(C#N)n3n2)c(Cl)cc1CCCCN1CCOCC1 [Example 572, 2-((2-chloro-5-cyano-4-(4-morpholinobutyl)phenyl)amino)-4-(cyclopropylamino)imidazo[2,1-f][1,2,4]triazine-7-carbonitrile]
14 | 1.3 | CC(CN1CC(O)C1)c1cc(C#N)cc(Nc2nc(NC3CC3)c3ncc(C#N)n3n2)c1Cl (stereo not shown) [Example 573, 2-((2-chloro-5-cyano-3-(1-(3-hydroxyazetidin-1-yl)propan-2-yl)phenyl)amino)-4-(cyclopropylamino)imidazo[2,1-f][1,2,4]triazine-7-carbonitrile]
15 | 0.44 | CC(CCO)c1cc(C#N)cc(Nc2nc(NC3CC3)c3ncc(C#N)n3n2)c1Cl (stereo not shown) [Example 574, 2-((2-chloro-5-cyano-3-(4-hydroxybutan-2-yl)phenyl)amino)-4-(cyclopropylamino)imidazo[2,1-f][1,2,4]triazine-7-carbonitrile]
16 | 0.98 | CC(CCN1CC(O)C1)c1cc(C#N)cc(Nc2nc(NC3CC3)c3ncc(C#N)n3n2)c1Cl (stereo not shown) [Example 575, 2-((2-chloro-5-cyano-3-(4-(3-hydroxyazetidin-1-yl)butan-2-yl)phenyl)amino)-4-(cyclopropylamino)imidazo[2,1-f][1,2,4]triazine-7-carbonitrile]
17 | 1.59 | CC(CCNCCC(F)(F)F)c1cc(C#N)cc(Nc2nc(NC3CC3)c3ncc(C#N)n3n2)c1Cl (stereo not shown) [Example 576, 2-((2-chloro-5-cyano-3-(4-((3,3,3-trifluoropropyl)amino)butan-2-yl)phenyl)amino)-4-(cyclopropylamino)imidazo[2,1-f][1,2,4]triazine-7-carbonitrile]
18 | 0.72 | CN1CCN(CCCc2cc(C#N)cc(Nc3nc(NC4CC4)c4ncc(C#N)n4n3)c2Cl)CC1 [Example 577, 2-((2-chloro-5-cyano-3-(3-(4-methylpiperazin-1-yl)propyl)phenyl)amino)-4-(cyclopropylamino)imidazo[2,1-f][1,2,4]triazine-7-carbonitrile]
19 | 0.99 | CCNc1nc(Nc2cc(C#N)cc(CCCN3CCN(C)CC3)c2Cl)nn2c(C#N)cnc12 [Example 578, 2-((2-chloro-5-cyano-3-(3-(4-methylpiperazin-1-yl)propyl)phenyl)amino)-4-(ethylamino)imidazo[2,1-f][1,2,4]triazine-7-carbonitrile]
20 | 4.1 | COCCOC(=O)N1CCC(N2CCN(c3cc(C#N)cc(Nc4nc(NC5CC5)c5ncc(C#N)n5n4)c3Cl)CC2)C1 (stereo not shown) [Example 579, 2-methoxyethyl 3-[4-(2-chloro-5-cyano-3-{[7-cyano-4-(cyclopropylamino)imidazo[2,1-f][1,2,4]triazin-2-yl]amino}phenyl)piperazin-1-yl]pyrrolidine-1-carboxylate]
21 | 3.2 | N#Cc1cc(Nc2nc(NC3CC3)c3ncc(C#N)n3n2)c(Cl)c(N2CCN(CC3(O)COC3)CC2)c1 [Example 580, 2-[(2-chloro-5-cyano-3-{4-[(3-hydroxyoxetan-3-yl)methyl]piperazin-1-yl}phenyl)amino]-4-(cyclopropylamino)imidazo [2,1-f][1,2,4]triazine-7-carbonitrile]
22 | 3.59 | N#Cc1cc(Nc2nc(NC3CC3)c3ncc(C#N)n3n2)c(Cl)c(N2CCN(C3CCNC3=O)CC2)c1 (stereo not shown) [Example 581, 2-({2-chloro-5-cyano-3-[4-(2-oxopyrrolidin-3-yl)piperazin-1-yl]phenyl}amino)-4-(cyclopropylamino)imidazo [2,1-f][1,2,4]triazine-7-carbonitrile]
23 | 5.9 | N#Cc1cc(Nc2nc(NC3CC3)c3ncc(C#N)n3n2)c(Cl)c(N2CCN(C3CCS(=O)(=O)C3)CC2)c1 (stereo not shown) [Example 582, 2-({2-chloro-5-cyano-3-[4-(1,1-dioxo-1λ^6-thiolan-3-yl)piperazin-1-yl]phenyl}amino)-4-(cyclopropylamino)imidazo [2,1-f][1,2,4]triazine-7-carbonitrile]
24 | 2.9 | CCNc1nc(Nc2cc(C#N)cc(N3CCN(C4CN(C)C4)CC3)c2Cl)nn2c(C#N)cnc12 [Example 583, 2-({2-chloro-5-cyano-3-[4-(1-methylazetidin-3-yl)piperazin-1-yl]phenyl}amino)-4-(ethylamino)imidazo [2,1-f][1,2,4]triazine-7-carbonitrile]
25 | 1.54 | N#Cc1cc(Nc2nc(NC3CC3)c3ncc(C#N)n3n2)c(Cl)c(N2CCN(C(=O)CN3CCC3)CC2)c1 [Example 584, 2-[(3-{4-[2-(azetidin-1-yl)acetyl]piperazin-1-yl}-2-chloro-5-cyanophenyl)amino]-4-(cyclopropylamino)imidazo [2,1-f][1,2,4]triazine-7-carbonitrile]
26 | 3.28 | COC1CN(CC(=O)N2CCN(c3cc(C#N)cc(Nc4nc(NC5CC5)c5ncc(C#N)n5n4)c3Cl)CC2)C1 [Example 585, 2-[(2-chloro-5-cyano-3-{4-[2-(3-methoxyazetidin-1-yl)acetyl]piperazin-1-yl}phenyl)amino]-4-(cyclopropylamino)imidazo [2,1-f][1,2,4]triazine-7-carbonitrile]
27 | 1.58 | CCNc1nc(Nc2cc(C#N)cc(N3CCN(C4CN(CC(O)CF)C4)CC3)c2Cl)nn2c(C#N)cnc12 (stereo not shown) [Example 586, 2-[(2-chloro-5-cyano-3-{4-[1-(3-fluoro-2-hydroxypropyl)azetidin-3-yl]piperazin-1-yl}phenyl)amino]-4-(ethylamino)imidazo[2,1-f][1,2,4]triazine-7-carbonitrile]
28 | 8.02 | N#Cc1cc(Nc2nc(NC3CC3)c3ncc(C#N)n3n2)c(Cl)c(N2CCN(C3CCCC3F)CC2)c1 (stereo not shown) [Example 587, 2-({2-chloro-5-cyano-3-[4-(2-fluorocyclopentyl)piperazin-1-yl]phenyl}amino)-4-(cyclopropylamino)imidazo [2,1-f][1,2,4]triazine-7-carbonitrile]

— patent publication US9273057B2 (Bristol-Myers Squibb Company, priority 2012, dated 2016)
